From patent publication US6391329B1, “Insect pest control method” (Earth Chemical Co., Ltd., priority 1994, dated 2002)

Assays:
[1] = Vapor pressure measurement of pyrethroid compounds with the vapor pressure measuring apparatus
[2] = Vapor pressure at 30° C. on the cox diagram; type: physicochemical
Method: Compounds which are hard to vaporize at normal temperature can be used in the present invention as a pesticidal component. Those having a vapor pressure […] than 1×10^−7 mmHg at 30° C. and a boiling point of not lower than 120° C./1 mmHg are preferred. It should be noted that the range of vapor pressure as referred to herein is the range at 30° C. on the vapor pressure vs. temperature plot in the cox diagram hereinafter described.
The results of our study have made it possible to suppose or know the vapor pressure at a target temperature by utilizing the cox diagram only if at least one found value is available. The aforesaid problem can thus be solved.
The cox diagram as used herein is the straight line or a group of the straight lines obtained by plotting log P as ordinate and t/(t+C) as abscissa on a graph.

[3] = tested on: Northern house mosquito (female adult); test: Insecticidal test in acrylic resin cylinder, air blown through impregnated honeycomb carrier (Example 1); type: in vivo; settings: 500 mg preparation; for number of knockdowns: 26 to 30° C.
From the text: Testing apparatus 1 shown in FIG. 1 comprising acrylic resin cylinder 4 was used. Twenty of northern house mosquitos (female adult) were put in the space partitioned with insect nets 2, and blower 3 was set at the bottom of testing apparatus 1. Preparation-retaining material 5 comprising a honeycomb carrier impregnated with a preparation was fitted in at the lower part of cylinder 4 and above blower 3. Air was blown from the bottom of cylinder 4 and passed through the preparation-retaining material 5 to release the pesticidal component from the preparation, and the insecticidal effect was examined using apparatus 1 for insect control of the present invention.
The number of knockdowns of the mosquitos was counted for every 30 seconds during 10 minutes and 30 seconds following the start of the testing. The mosquitos knocked down were transferred to a clean plastic cup (volume: about 500 ml) containing a cotton wad impregnated with a 1% aqueous sugar solution as feed, and the cup was covered and maintained under constant temperature conditions of about 25° C. […]
The preparation-retaining material used herein was prepared as follows. A honeycomb structure (70×70×15 mm) comprising a laminate of corrugated boards (single-sided) made of bleached kraft paper having a basis weight of 80 g/m^2 (height of the corrugation: about 2 mm) was uniformly impregnated with 3 ml of an acetone solution containing about 500 mg of preparation. The impregnated carrier was set in the apparatus after acetone vaporized.

[4] = tested on: sensitive German cockroaches (Blatella germanica); test: Cockroach knockdown and mortality in 24 m^3 test room (Example 3); type: in vivo; settings: 1.0 g pesticidal component
Method: (§1) The insect pest control apparatus of the present invention was put at the center of the floor of the room, and two cups each containing 20 cockroaches were placed at each of the two opposite corners of the floor. The pesticidal component shown in Table 5 below was released from the apparatus for consecutive 24 hours. As test insects, sensitive German cockroaches (Blatella germanica) and sensitive smokybrown cockroaches (Periplaneta fuliginosa) were used.
(§2) The preparation-retaining material used was prepared by impregnating a honeycomb carrier (70×70×15 mm; FIG. 3) with 1.0 g of the pesticidal component.

[5] = tested on: sensitive smokybrown cockroaches (Periplaneta fuliginosa); test: as above; type: in vivo; settings: 1.0 g pesticidal component
Method: as §1, §2

## C#CCc1ccc(COC(=O)C2C(C=C(C)C)C2(C)C)o1 (mixture of isomers) [furamethrin, 5-propargyl-2-furylmethyl d-cis/trans-chrysanthemate]
[1]; 20° C.
  Vapor Pressure: 1.3 × 10^−4 mmHg
[1]; 25° C.
  Vapor Pressure: 2.2 × 10^−4 mmHg
[1]; 30° C.
  Vapor Pressure: 4.5 × 10^−4 mmHg
[1]; 35° C.
  Vapor Pressure: 7.1 × 10^−4 mmHg
[1]; 40° C.
  Vapor Pressure: 1.4 × 10^−3 mmHg
[2]
  Vapor Pressure at 30° C.: 4.5 × 10^−4 mmHg
[3]; 0.5 min
  number of knockdowns: 0
[3]; 1.0 min
  number of knockdowns: 0
[3]; 1.5 min
  number of knockdowns: 0
[3]; 2.0 min
  number of knockdowns: 1
[3]; 2.5 min
  number of knockdowns: 3
[3]; 3.0 min
  number of knockdowns: 8
[3]; 3.5 min
  number of knockdowns: 18
[3]; 4.0 min
  number of knockdowns: 19
[3]; 24 hrs.
  Mortality (%): 100%
[3]; 48 hrs.
  Mortality (%): 100%

## CC1(C)C(C=C(Cl)Cl)C1C(=O)OCc1cccc(Oc2ccccc2)c1 (mixture of isomers) [permethrin, 3-phenoxybenzyl-dl-cis/trans-3-(2,2-dichlorovinyl)-2,2-dimethyl-1-cyclopropanecarboxylate]
[1]; 20° C.
  Vapor Pressure: 5.5 × 10^−7 mmHg
[1]; 25° C.
  Vapor Pressure: 1.1 × 10^−6 mmHg
[1]; 30° C.
  Vapor Pressure: 1.9 × 10^−6 mmHg
[1]; 35° C.
  Vapor Pressure: 3.6 × 10^−6 mmHg
[1]; 40° C.
  Vapor Pressure: 6.3 × 10^−6 mmHg

## CC(C)=CC1C(C(=O)OCc2cccc(Oc3ccccc3)c2)C1(C)C (mixture of isomers) [phenothrin, 3-phenoxybenzyl-d-cis/trans-chrysanthemate]
[1]; 20° C.
  Vapor Pressure: 1.2 × 10^−6 mmHg
[1]; 25° C.
  Vapor Pressure: 2.2 × 10^−6 mmHg
[1]; 30° C.
  Vapor Pressure: 4.3 × 10^−6 mmHg
[1]; 35° C.
  Vapor Pressure: 7.7 × 10^−6 mmHg
[1]; 40° C.
  Vapor Pressure: 1.4 × 10^−5 mmHg

## CC(C)=CC1C(C(=O)OCN2C(=O)C3=C(CCCC3)C2=O)C1(C)C (mixture of isomers) [phthalthrin, (1,3,4,5,6,7-hexahydro-1,3-dioxo-2-isoindolyl)methyl dl-cis/trans-chrysanthemate]
[1]; 20° C.
  Vapor Pressure: 3.5 × 10^−8 mmHg
[1]; 25° C.
  Vapor Pressure: 6.6 × 10^−8 mmHg
[1]; 30° C.
  Vapor Pressure: 1.2 × 10^−7 mmHg
[1]; 35° C.
  Vapor Pressure: 2.2 × 10^−7 mmHg
[1]; 40° C.
  Vapor Pressure: 3.8 × 10^−7 mmHg

## C#CCC1=C(C)C(OC(=O)C2C(C=C(C)C)C2(C)C)CC1=O (mixture of isomers) [prallethrin, (+)-2-methyl-4-oxo-3-(2-propynyl)-2-cyclopentenyl (+)-cis/trans-chrysanthemate]
[1]; 20° C.
  Vapor Pressure: 3.5 × 10^−5 mmHg
[1]; 25° C.
  Vapor Pressure: 6.9 × 10^−5 mmHg
[1]; 30° C.
  Vapor Pressure: 1.3 × 10^−4 mmHg
[1]; 35° C.
  Vapor Pressure: 2.4 × 10^−4 mmHg
[1]; 40° C.
  Vapor Pressure: 4.4 × 10^−4 mmHg
[2]
  Vapor Pressure at 30° C.: 1.3 × 10^−4 mmHg
[3]; 0.5 min
  number of knockdowns: 0
[3]; 1.0 min
  number of knockdowns: 0
[3]; 1.5 min
  number of knockdowns: 1
[3]; 2.0 min
  number of knockdowns: 10
[3]; 2.5 min
  number of knockdowns: 15
[3]; 3.0 min
  number of knockdowns: 21
[3]; 3.5 min
  number of knockdowns: 22
[3]; 24 hrs.
  Mortality (%): 86%
[3]; 48 hrs.
  Mortality (%): 100%

## CC(C)=CC1C(C(=O)OC(C#N)c2cccc(Oc3ccccc3)c2)C1(C)C (racemic) [cyphenothrin, (±) αa-cyano-3-phenoxybenzyl(+)-cis/trans-chrysanthemate]
[1]; 20° C.
  Vapor Pressure: 9.2 × 10^−7 mmHg
[1]; 25° C.
  Vapor Pressure: 1.9 × 10^−6 mmHg
[1]; 30° C.
  Vapor Pressure: 3.6 × 10^−6 mmHg
[1]; 35° C.
  Vapor Pressure: 6.6 × 10^−6 mmHg
[1]; 40° C.
  Vapor Pressure: 1.3 × 10^−5 mmHg

## CC1(C)C(C=C(Cl)Cl)C1C(=O)OCc1c(F)c(F)cc(F)c1F (stereo not drawn) [benfluthrin, d-trans-2,3,5,6-tetrafluorobenzyl-3-(2,2-dichlorovinyl)-2,2-dimethyl-1-cyclopropanecarboxylate]
[1]; 20° C.
  Vapor Pressure: 8.3 × 10^−5 mmHg
[1]; 25° C.
  Vapor Pressure: 1.5 × 10^−4 mmHg
[1]; 30° C.
  Vapor Pressure: 2.7 × 10^−4 mmHg
[1]; 35° C.
  Vapor Pressure: 4.0 × 10^−4 mmHg
[1]; 40° C.
  Vapor Pressure: 8.5 × 10^−4 mmHg
[4]; 1 hr
  Knockdown Ratio (%): 0%
[4]; 2 hrs
  Knockdown Ratio (%): 0%
[4]; 4 hrs
  Knockdown Ratio (%): 0%
[4]; 24 hrs
  Knockdown Ratio (%): 87.5%
[4]; 48 hrs
  Mortality at 48 hrs (%): 97.5%
[5]; 1 hr
  Knockdown Ratio (%): 0%
[5]; 2 hrs
  Knockdown Ratio (%): 0%
[5]; 4 hrs
  Knockdown Ratio (%): 5.0%
[5]; 24 hrs
  Knockdown Ratio (%): 6.3%
[5]; 48 hrs
  Mortality at 48 hrs (%): 7.5%

## C=CCC1=C(C)C(OC(=O)C2C(C=C(C)C)C2(C)C)CC1=O (stereo not drawn) [esbiol, d-3-allyl-2-methyl-4-oxo-2-cyclopentenyl d-trans-chrysanthemate]
[2]
  Vapor Pressure at 30° C.: 1.2 × 10^−4 mmHg
[3]; 0.5 min
  number of knockdowns: 0
[3]; 1.0 min
  number of knockdowns: 0
[3]; 1.5 min
  number of knockdowns: 1
[3]; 2.0 min
  number of knockdowns: 3
[3]; 2.5 min
  number of knockdowns: 10
[3]; 3.0 min
  number of knockdowns: 17
[3]; 3.5 min
  number of knockdowns: 19
[3]; 4.0 min
  number of knockdowns: 22
[3]; 24 hrs.
  Mortality (%): 70%
[3]; 48 hrs.
  Mortality (%): 78%

## CC(C)=CC1C(C(=O)OCN2C(=O)C3=C(CCCC3)C2=O)C1(C)C (stereo not shown) [tetramethrin]
[1]; 20° C.
  Vapor Pressure: 2.4 × 10^−6 mmHg
[1]; 25° C.
  Vapor Pressure: 4.4 × 10^−6 mmHg
[1]; 30° C.
  Vapor Pressure: 8.5 × 10^−6 mmHg
[1]; 35° C.
  Vapor Pressure: 1.7 × 10^−5 mmHg
[1]; 40° C.
  Vapor Pressure: 3.2 × 10^−5 mmHg
